Data from BindingDB's records for doi:10.1016/s0024-3205(03)00272-8 (Merck Research Laboratories, 2003).

Columns and labels:
[1] = target: Metabotropic glutamate receptor 2 (Homo sapiens, UniProt Q14416)
[2] = target: Metabotropic glutamate receptor 1 (Rattus norvegicus, UniProt P23385)
[3] = target: T1, Retinoic acid receptor RXR-alpha (Rattus norvegicus, UniProt Q05343)
T1 sequence (Q05343 whole entry): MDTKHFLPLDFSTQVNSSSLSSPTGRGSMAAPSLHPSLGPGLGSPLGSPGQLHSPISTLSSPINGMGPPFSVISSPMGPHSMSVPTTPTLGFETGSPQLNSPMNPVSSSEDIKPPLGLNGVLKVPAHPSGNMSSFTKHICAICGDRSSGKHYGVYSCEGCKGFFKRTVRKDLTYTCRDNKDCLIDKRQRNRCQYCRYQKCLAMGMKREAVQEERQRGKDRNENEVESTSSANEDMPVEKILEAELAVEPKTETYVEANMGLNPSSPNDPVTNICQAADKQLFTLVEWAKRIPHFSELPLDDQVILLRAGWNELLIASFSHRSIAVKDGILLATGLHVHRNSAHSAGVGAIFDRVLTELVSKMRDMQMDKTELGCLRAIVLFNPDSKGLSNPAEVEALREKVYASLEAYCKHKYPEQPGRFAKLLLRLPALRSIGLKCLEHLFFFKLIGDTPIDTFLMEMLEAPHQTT

[4] = target: T2, Alpha-2C adrenergic receptor (Rattus norvegicus, UniProt P22086)
T2 sequence (P22086 whole entry): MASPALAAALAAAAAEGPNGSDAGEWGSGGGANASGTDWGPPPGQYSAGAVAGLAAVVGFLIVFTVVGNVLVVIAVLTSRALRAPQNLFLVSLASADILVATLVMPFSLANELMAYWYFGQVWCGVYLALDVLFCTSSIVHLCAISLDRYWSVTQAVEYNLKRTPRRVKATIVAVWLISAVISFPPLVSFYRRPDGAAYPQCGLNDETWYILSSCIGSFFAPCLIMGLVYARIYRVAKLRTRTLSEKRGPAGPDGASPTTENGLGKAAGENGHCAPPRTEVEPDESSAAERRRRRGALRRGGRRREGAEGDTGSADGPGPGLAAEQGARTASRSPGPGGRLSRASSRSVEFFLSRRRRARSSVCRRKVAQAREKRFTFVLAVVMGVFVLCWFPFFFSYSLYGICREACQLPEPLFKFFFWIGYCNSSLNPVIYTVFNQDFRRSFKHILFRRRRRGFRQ

Metabotropic glutamate receptor 2, sequence (Q14416 whole entry): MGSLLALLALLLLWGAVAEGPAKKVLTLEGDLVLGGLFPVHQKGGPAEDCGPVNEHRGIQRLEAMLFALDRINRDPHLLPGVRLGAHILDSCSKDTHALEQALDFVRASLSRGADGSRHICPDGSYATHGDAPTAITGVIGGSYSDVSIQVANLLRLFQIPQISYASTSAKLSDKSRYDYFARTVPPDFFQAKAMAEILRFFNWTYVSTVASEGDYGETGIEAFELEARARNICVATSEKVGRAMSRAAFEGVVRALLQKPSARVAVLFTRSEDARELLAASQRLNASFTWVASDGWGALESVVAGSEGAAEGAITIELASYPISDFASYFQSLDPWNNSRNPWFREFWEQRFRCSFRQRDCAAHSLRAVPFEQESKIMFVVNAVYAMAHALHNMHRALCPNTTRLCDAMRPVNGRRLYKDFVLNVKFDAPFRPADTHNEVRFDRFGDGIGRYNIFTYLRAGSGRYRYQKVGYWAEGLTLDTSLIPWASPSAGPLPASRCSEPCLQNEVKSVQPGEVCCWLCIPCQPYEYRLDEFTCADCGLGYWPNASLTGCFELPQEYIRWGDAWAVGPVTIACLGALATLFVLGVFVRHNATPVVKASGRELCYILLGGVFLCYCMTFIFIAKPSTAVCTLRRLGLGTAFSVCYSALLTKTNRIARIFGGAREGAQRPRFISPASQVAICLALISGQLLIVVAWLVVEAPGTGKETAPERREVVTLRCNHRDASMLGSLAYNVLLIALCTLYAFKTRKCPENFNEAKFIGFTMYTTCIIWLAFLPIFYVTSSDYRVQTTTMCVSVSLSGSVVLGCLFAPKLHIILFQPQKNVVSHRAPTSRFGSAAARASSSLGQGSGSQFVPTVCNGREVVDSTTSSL
Metabotropic glutamate receptor 1, sequence (P23385 whole entry): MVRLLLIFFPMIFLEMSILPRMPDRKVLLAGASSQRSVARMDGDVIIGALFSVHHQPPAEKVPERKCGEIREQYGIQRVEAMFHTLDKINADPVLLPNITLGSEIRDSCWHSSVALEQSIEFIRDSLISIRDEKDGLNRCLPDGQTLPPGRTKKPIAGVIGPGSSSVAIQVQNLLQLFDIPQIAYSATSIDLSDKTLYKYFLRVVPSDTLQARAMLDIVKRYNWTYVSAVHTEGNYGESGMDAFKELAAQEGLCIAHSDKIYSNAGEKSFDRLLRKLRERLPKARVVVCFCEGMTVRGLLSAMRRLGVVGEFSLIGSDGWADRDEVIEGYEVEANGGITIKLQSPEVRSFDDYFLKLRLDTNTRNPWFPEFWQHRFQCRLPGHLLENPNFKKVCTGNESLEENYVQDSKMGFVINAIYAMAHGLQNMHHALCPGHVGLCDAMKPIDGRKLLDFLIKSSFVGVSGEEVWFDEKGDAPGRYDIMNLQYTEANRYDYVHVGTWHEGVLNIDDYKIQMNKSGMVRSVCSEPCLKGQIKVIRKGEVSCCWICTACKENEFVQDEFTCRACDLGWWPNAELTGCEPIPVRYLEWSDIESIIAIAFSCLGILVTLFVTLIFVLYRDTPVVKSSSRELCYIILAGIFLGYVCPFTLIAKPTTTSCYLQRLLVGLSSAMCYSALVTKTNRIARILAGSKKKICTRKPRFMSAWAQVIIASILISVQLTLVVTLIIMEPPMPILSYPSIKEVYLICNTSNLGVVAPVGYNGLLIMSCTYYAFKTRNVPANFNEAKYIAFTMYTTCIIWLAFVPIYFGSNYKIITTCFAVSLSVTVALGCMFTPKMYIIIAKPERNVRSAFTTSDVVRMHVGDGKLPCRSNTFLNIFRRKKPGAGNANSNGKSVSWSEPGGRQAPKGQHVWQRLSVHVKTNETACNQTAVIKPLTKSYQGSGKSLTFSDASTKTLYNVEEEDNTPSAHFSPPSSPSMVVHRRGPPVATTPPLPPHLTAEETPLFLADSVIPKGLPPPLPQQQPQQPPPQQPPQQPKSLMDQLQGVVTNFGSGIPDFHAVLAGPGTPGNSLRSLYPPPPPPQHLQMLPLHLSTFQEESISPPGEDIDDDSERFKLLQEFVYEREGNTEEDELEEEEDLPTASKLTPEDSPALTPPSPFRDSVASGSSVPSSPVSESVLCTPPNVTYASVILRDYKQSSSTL

NC1(C(=O)O)CCc2cc(C(=O)O)ccc21 (racemic) [AIDA]
Ki [1]: 1.1 µM

NC(C(=O)O)c1ccc(C(=O)O)cc1 (centres undefined) [4-(Amino-carboxy-methyl)-benzoic acid]
Ki [2]: 1.1 µM

CC12NC(Cc3ccccc31)c1ccccc12 (centres undefined) [CAS_180081]
Ki [3]: 7.6 µM

COc1cccc(OC)c1OCCNCC1CSc2ccccc2O1 (centres undefined) [NSC_2325]
Ki [4]: 7.6 µM
